From US6583145B1, “Thio-oxindole derivatives” (Wyeth, priority 1999, dated 2003)

Assays:
[1] = test system: rat uterine decidualization; experiment: Rat decidualization assay; conditions: s.c.; average of the dose-response curves

C#C[C@]1(O)CC[C@H]2[C@@H]3CCC4=CC(=O)CC[C@@H]4[C@H]3C(=C)C[C@@]21CC [3-Ketodesogestrel]
Estimated average EC50 (decidual response) [1]: 0.10 mg/kg

N#Cc1cccc(-c2ccc3c(c2)C2(CCCCC2)C(=S)N3)c1 [Example 2, 3-(1′,2′-Dihydro-2′-thioxospiro[cyclohexane-1,3′-[3H]indol]-5′-yl)benzonitrile]
melting point: > 231 °C (dec.)

CC1(C)C(=S)Nc2ccc(-c3coc(C#N)c3)cc21 [Example 18, 4-(3,3-Dimethyl-2-thioxo-2,3-dihydro-1H-indol-5-yl)-2-furonitrile]
melting point: 188 to 191 °C

ON=C1Nc2ccc(-c3ccc(F)cc3)cc2C12CCCCC2 [Example 47, 5′-(4-Fluorophenyl)spiro[cyclohexane-1,3′-[3H]indol]-2′(1′H)-one Oxime]
melting point: 205 to 208 °C

COc1cccc(-c2ccc3c(c2)C2(CCCCC2)C(=NO)N3)c1 [Example 49, 5′-(3-Methoxyphenyl)spiro[cyclohexane-1,3′-[3H]indol]-2′(1′H)-one Oxime]
melting point: 101 to 104 °C

N#Cc1cccc(-c2ccc3c(c2)C2(CCCCC2)C(=NO)N3)c1 [Example 51, 5′-(3-Cyanophenyl)spiro[cyclohexane-1,3′-[3H]indol]-2′(1′H)-one Oxime]
melting point: 198 to 200 °C
